The assay has as its target Stimulator of interferon genes protein (Homo sapiens, UniProt Q86WV6). Briefly: WT STING Binding Assay. On the procedure: Upon proximity of the two dyes, the excitation of the donor by the flash lamp on the PHERAstar FSX plate reader triggers a Fluorescence Resonance Energy Transfer (FRET) towards the acceptor, which in turn fluoresces at 665 nm. To assess the ability of the synthetic small molecule STING ligands to bind to human STING, a competitive assay format was applied. A 10-point titration of each of the synthetic ligands in 5 uL were transferred into a 384 well plate, followed by 20 uL of assay buffer containing the 6×His-tagged human STING protein and labeled 2′3′cGAMP ligand and incubated for three hours at room temperature. The raw values obtained from the PHERAstar were used to calculate the reported IC50 values (the signal is inversely proportional to the binding of the synthetic ligand) through curve fitting in Genedata. The percent inhibition was calculated based upon the maximal amount of binding by synthetic compound versus the maximum binding of unlabeled 2′3′ cGAMP which was used as a control in each assay.

Sequence of Stimulator of interferon genes protein (Q86WV6 whole entry): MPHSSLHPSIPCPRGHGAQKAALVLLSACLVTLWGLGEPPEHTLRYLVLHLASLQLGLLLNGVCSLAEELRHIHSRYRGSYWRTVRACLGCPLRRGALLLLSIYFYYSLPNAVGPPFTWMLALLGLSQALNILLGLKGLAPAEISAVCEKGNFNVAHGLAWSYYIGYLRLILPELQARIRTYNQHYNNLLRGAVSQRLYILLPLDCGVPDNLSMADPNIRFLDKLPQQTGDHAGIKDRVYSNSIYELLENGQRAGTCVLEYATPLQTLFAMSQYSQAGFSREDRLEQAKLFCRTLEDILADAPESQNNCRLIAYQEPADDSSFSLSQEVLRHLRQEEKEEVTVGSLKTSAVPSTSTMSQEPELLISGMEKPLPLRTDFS

Take `COC(=O)c1ccc(OCCCCOc2ccc(C(=O)O)c(NC(=O)c3ccc(-n4ccnc4)nn3)c2)cc1NC(=O)c1ccc2nnnn2n1` [US20230357253, Compound 37]: the IC50 – broadly, the concentration that inhibits the measured activity by half – is over 1000 nM.

For `O=C(Nc1cc(CCSc2cc(NC(=O)c3ccc(-n4ccnc4)nn3)c(C(=O)O)cc2F)c(F)cc1C(=O)O)c1ccc(-n2ccnc2)nn1` [US20230357253, Compound 195], the IC50 was under 10 nM.

The compound `O=C(Nc1cc(OCCOc2cc(C(=O)O)c(NC(=O)c3ccc(-n4ccnc4)nn3)cc2F)c(F)cc1C(=O)O)c1ccc(-n2ccnc2)nn1` [US20230357253, Compound 191] had an IC50 of under 10 nM.

Consider `O=C(Nc1cc(CCCc2cc(C(=O)O)c(NC(=O)c3ccc(-n4ccnc4)nn3)cc2F)ccc1C(=O)O)c1ccc(-n2ccnc2)nn1` [US20230357253, Compound 78], for which the IC50 is under 10 nM.

On to `O=C(Nc1cc(OCCc2cc(C(=O)O)c(NC(=O)c3ccc(-n4ccnc4)nn3)cc2F)c(F)cc1C(=O)O)c1ccc(-n2ccnc2)nn1` [US20230357253, Compound 144], for which the IC50 was under 10 nM.

For the compound `O=C(Nc1cc(OCCCCOc2cnc(C(=O)O)c(NC(=O)c3ccc(-n4ccnc4)nn3)c2)cnc1C(=O)O)c1ccc(-n2ccnc2)nn1` [US20230357253, Compound 45], the IC50 is over 1000 nM.

For `O=C(Nc1c(C(=O)O)cc(F)c(OCCCCOc2c(F)cc(C(=O)O)c(NC(=O)c3ccc(-n4ccnc4)nn3)c2F)c1F)c1ccc(O)nn1` [US20230357253, Compound 39], the IC50 was over 1000 nM.

Compound `COc1cc(C(=O)O)c(NC(=O)c2ccc(-n3ccnc3)nn2)cc1OCCc1cc(C(=O)O)c(NC(=O)c2ccc3nnnn3n2)cc1Cl` [US20230357253, Compound 6] had a 50% inhibitory concentration (IC50) of under 10 nM.

Compound `O=C(Nc1cc(OCCCCCOc2ccc(C(=O)O)c(NC(=O)c3ccc4nnnn4n3)c2)ccc1C(=O)O)c1ccc2nnnn2n1` [US20230357253, Compound 30] returned an IC50 of over 1000 nM.

Compound `O=C(Nc1cc(CCCc2cc(NC(=O)c3ccc(-n4ccnc4)nn3)c(C(=O)O)cc2F)c(F)cc1C(=O)O)c1ccc(-c2cn[nH]c2)nn1` [US20230357253, Compound 159] yielded an IC50 of under 10 nM.

Regarding `O=C(Nc1cc(OCCCCOc2ccc(C(=O)O)c(NC(=O)c3ccc(-n4ccnc4)nn3)c2)ccc1C(=O)O)c1ccc(O)nn1` [US20230357253, Compound 35], the half-inhibitory concentration (IC50) is over 1000 nM.

Turning to `O=C(Nc1cc(OCCOc2cc(C(=O)O)c(NC(=O)c3ccc4nnnn4n3)cc2F)ccc1C(=O)O)c1ccc2nnnn2n1` [US20230357253, Compound 26], the IC50 was over 1000 nM.

Turning to `O=C(Nc1cc(OCCCOc2ccc(NC(=O)c3ccc4nnnn4n3)c(C(=O)O)c2)ccc1C(=O)O)c1ccc2nnnn2n1` [US20230357253, Compound 25], the IC50 was over 1000 nM.

In turn, `O=C(Nc1cc(CCCOc2cc(NC(=O)c3ccc4nnnn4n3)c(C(=O)O)cc2F)c(F)cc1C(=O)O)c1ccc(-n2ccnc2)nn1` [US20230357253, Compound 126] showed an IC50 of under 10 nM.

In turn, `O=C(Nc1cc(OCc2cc(C(=O)O)c(NC(=O)c3ccc(-n4ccnc4)nn3)cc2F)c(F)cc1C(=O)O)c1ccc(-n2ccnc2)nn1` [US20230357253, Compound 190] showed an IC50 of over 1000 nM.

Compound `COc1cc(C(=O)O)c(NC(=O)c2ccc(-n3ccnc3)nn2)cc1OCCc1cc(C(=O)O)c(NC(=O)c2ccc(-n3ccnc3)nn2)cc1Cl` [US20230357253, Compound 156] displayed an IC50 of under 10 nM.

`N#Cc1cc(C(=O)O)c(NC(=O)c2ccc(-n3ccnc3)nn2)cc1CCCc1cc(NC(=O)c2ccc(-n3ccnc3)nn2)c(C(=O)O)cc1F` [US20230357253, Compound 182] yielded an IC50 of under 10 nM.

As for `O=C(Nc1cc(CCCc2cc(C(=O)O)c(NC(=O)c3ccc4nnnn4n3)cc2F)c(N2CCOCC2)cc1C(=O)O)c1ccc(-n2ccnc2)nn1` [US20230357253, Compound 108], the IC50 was over 1000 nM.

In the case of `O=C(Nc1cc(CCOc2cc(NC(=O)c3ccc(-c4cn[nH]c4)nn3)c(C(=O)O)cc2F)c(F)cc1C(=O)O)c1ccc(-c2cn[nH]c2)nn1` [US20230357253, Compound 4], the IC50 was under 10 nM.

For the compound `CC(CCOc1cc(NC(=O)c2ccc(-n3ccnc3)nn2)c(C(=O)O)cc1F)Oc1cc(NC(=O)c2ccc(-n3ccnc3)nn2)c(C(=O)O)cc1F` (stereo not given) [US20230357253, Compound 5], the IC50 is under 10 nM.

The compound `O=C(Nc1cc(CCCc2ccc(NC(=O)c3ccc4nnnn4n3)c(C(=O)O)c2)ccc1C(=O)O)c1ccc2nnnn2n1` [US20230357253, Compound 13] displayed an IC50 of over 1000 nM.

As to `O=C(Nc1cc(CCCc2cc(C(=O)O)c(NC(=O)c3ccc4nnnn4n3)cc2F)c(F)cc1C(=O)O)c1ccc(-n2ccnc2)nn1` [US20230357253, Compound 90], the IC50 was under 10 nM.

`O=C(Nc1cc(CCCc2cc(NC(=O)c3ccc(-n4ccnc4)nn3)c(C(=O)O)cc2Cl)c(F)cc1C(=O)O)c1ccc(-n2ccnc2)nn1` [US20230357253, Compound 174] gave an IC50 of under 10 nM.

The compound `N#Cc1cc(C(=O)O)c(NC(=O)c2ccc(-n3ccnc3)nn2)cc1CCOc1cc(NC(=O)c2ccc(-n3ccnc3)nn2)c(C(=O)O)cc1F` [US20230357253, Compound 162] displayed an IC50 of under 10 nM.

Take `O=C(Nc1cc(CCCCc2cc(C(=O)O)c(NC(=O)c3ccc(-n4ccnc4)nn3)cc2F)c(F)cc1C(=O)O)c1ccc(-n2ccnc2)nn1` [US20230357253, Compound 127]: the IC50 is under 10 nM.

Regarding `O=C(Nc1cc(OCCOc2ccc(NC(=O)c3ccc4nnnn4n3)c(C(=O)O)c2)ccc1C(=O)O)c1ccc2nnnn2n1` [US20230357253, Compound 31], the IC50 is over 1000 nM.

`C=C(Cc1cc(NC(=O)c2ccc(-n3ccnc3)nn2)c(C(=O)O)cc1F)Cc1cc(NC(=O)c2ccc(-n3ccnc3)nn2)c(C(=O)O)cc1F` [US20230357253, Compound 199] registered an IC50 of under 10 nM.

For the compound `O=C(Nc1cc(OCCCCOc2ccc(C(=O)O)c(NC(=O)c3ccc4nnnn4n3)c2)ccc1C(=O)O)c1ccc2nnnn2n1` [US20230357253, Compound 32], the IC50 was over 1000 nM.

Compound `O=C(Nc1cc(CCCc2ccc(-c3nn[nH]n3)c(NC(=O)c3ccc(-n4ccnc4)nn3)c2)c(F)cc1C(=O)O)c1ccc(-n2ccnc2)nn1` [US20230357253, Compound 148] came in with an IC50 of over 1000 nM.

As for `O=C(Nc1cc(OCCCCOc2cc(NC(=O)c3ccc(-n4ccnc4)nn3)c(C(=O)O)cc2F)ccc1C(=O)O)c1ccc(-n2ccnc2)nn1` [US20230357253, Compound 19], the half-maximal inhibitory concentration (IC50) was under 10 nM.

In the case of `O=C(Nc1cc(CCOc2cc(C(=O)O)c(NC(=O)c3ccc4nnnn4n3)cc2F)c(F)cc1C(=O)O)c1ccc(-n2ccnc2)nn1` [US20230357253, Compound 145], the IC50 lay within 10 to 100 nM.

As for `O=C(Nc1cc(OCCCCOc2ccc(NC(=O)c3ccc4nnnn4n3)c(C(=O)O)c2)ccc1C(=O)O)c1ccc2nnnn2n1` [US20230357253, Compound 27], the IC50 was over 1000 nM.

For `O=C(Nc1cc(CCCc2cc(NC(=O)c3ccc(-n4ccnc4)nn3)c(C(=O)O)cc2Cl)ccc1C(=O)O)c1ccc(-n2ccnc2)nn1` [US20230357253, Compound 66], the IC50 was under 10 nM.

For the compound `O=C(Nc1ccc(OCOc2ccc(NC(=O)c3ccc(-n4ccnc4)nn3)c(C(=O)O)c2)cc1C(=O)O)c1ccc(-n2ccnc2)nn1` [US20230357253, Compound 138], the IC50 is over 1000 nM.

As for `O=C(Nc1cc(OCCCOc2cc(C(=O)O)c(NC(=O)c3ccc(-n4ccnc4)nn3)cc2F)c(F)cc1C(=O)O)c1ccc(-n2ccnc2)nn1` [US20230357253, Compound 10], the IC50 is under 10 nM.
